Results as given in patent US11401508B2, “Methods for isolating human cardiac ventricular progenitor cells” (Procella Therapeutics AB, priority 2016, dated 2022).

Legend:
Porcn = molecular target: T1, Porcn (Homo sapiens, UniProt Q9H237); conditions: read-out: IC50 (Porcn inhibitor); cited from earlier work
T1 sequence (Q9H237 1-461): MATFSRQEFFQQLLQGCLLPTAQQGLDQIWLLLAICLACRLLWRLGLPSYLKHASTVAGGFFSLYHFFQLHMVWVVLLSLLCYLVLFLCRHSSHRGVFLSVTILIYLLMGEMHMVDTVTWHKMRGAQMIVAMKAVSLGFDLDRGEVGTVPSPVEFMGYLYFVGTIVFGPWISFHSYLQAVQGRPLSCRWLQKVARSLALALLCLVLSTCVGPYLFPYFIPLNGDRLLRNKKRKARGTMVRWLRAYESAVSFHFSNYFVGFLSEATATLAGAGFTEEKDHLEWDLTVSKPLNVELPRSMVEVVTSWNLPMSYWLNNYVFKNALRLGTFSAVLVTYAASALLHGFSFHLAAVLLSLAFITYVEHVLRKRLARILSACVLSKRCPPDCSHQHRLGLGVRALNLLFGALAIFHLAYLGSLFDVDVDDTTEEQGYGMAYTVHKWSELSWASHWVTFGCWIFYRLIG

hPSCs = experiment: Cardiac differentiation of hPSCs, lineage markers by flow cytometry and immunostaining; assay type: cell-based, human
Method: Cells were then cultured in mTeSR1, changed daily.
Data were collected on a FACSCaliber flow cytometer (Beckton Dickinson) and analyzed using FlowJo.

[1] = system: mature human muscle organ; experiment: Force generation of muscle strips from HVP-derived human muscle organ on electric stimulation; conditions: 5-month graft, p<0.05 compared to control
From the text: Animals were sacrificed and the engrafted kidneys were removed for further analysis. The 5-month human graft was a hemisphere structure with the radius of 0.4 cm (diameter of 0.8 cm). […] In addition, muscle trips taken from our mature human muscle organ generated forces (0.36±0.04 mN) in response to electric stimulation and increased their force generation after treatment with a β-adrenergic agonist isoprenaline (0.51±0.02 mN, p<0.05 compared to control). Taken together, these studies indicate that the HVPs are capable of generating a fully functional, mature human ventricular muscle organ in vivo via a cell autonomous pathway, i.e., without the addition of other cells, genes, matrix proteins, or biomaterials.

GSK-3 α = GSK-3 α (Homo sapiens, UniProt P49840); conditions: cited from earlier work
GSK-3, β = GSK-3, β (Homo sapiens, UniProt P49841); conditions: read-out: IC50 GSK-3 β; cited from earlier work
GSK-3, β, sequence (P49841 whole entry, species assumed): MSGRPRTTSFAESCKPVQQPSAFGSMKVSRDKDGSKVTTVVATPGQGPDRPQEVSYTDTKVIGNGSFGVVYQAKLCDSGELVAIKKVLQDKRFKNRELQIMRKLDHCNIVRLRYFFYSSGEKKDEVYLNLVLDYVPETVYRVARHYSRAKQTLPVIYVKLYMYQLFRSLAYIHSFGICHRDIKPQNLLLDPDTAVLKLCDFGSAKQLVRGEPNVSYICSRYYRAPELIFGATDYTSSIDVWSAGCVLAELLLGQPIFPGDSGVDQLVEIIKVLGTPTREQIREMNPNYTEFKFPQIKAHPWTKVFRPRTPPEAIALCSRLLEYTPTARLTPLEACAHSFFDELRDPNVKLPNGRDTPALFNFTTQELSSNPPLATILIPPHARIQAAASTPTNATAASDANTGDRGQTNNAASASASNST

GSK-3 α, sequence (P49840 whole entry, species assumed): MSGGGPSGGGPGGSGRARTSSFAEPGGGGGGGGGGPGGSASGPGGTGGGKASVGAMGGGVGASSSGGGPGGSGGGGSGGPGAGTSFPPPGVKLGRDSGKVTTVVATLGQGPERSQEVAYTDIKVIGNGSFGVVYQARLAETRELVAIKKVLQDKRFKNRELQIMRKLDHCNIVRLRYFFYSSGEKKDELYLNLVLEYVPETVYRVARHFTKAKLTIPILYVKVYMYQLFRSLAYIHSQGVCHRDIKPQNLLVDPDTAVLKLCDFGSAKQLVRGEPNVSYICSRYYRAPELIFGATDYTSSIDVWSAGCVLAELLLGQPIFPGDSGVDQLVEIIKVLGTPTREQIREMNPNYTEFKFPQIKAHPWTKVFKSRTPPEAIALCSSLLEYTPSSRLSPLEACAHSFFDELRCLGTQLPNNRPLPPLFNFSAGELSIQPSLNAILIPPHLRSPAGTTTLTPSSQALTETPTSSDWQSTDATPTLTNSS

## Cc1ccc2nc(NC(=O)CSc3nc4c(c(=O)n3-c3ccccc3)SCC4)sc2c1 [IWP2]
Porcn
  IC50: 27 nM

## Cc1cc(-c2ccc(CC(=O)Nc3ccc(-c4cccnc4)cc3)cc2)ccn1 [Wnt-059]
hPSCs; 48-hour treatment
  ventricular progenitor differentiation from mesoderm cells: enhanced ventricular progenitor differentiation
Porcn
  IC50: 0.074 nM

## CC(C)NCC(O)c1ccc(O)c(O)c1 (centres unmarked) [isoprenaline]
[1]
  force generated by muscle strips after treatment with β-adrenergic agonist: 0.51±0.02 mN

## CHIR98014
hPSCs; after 24 hour treatment
  hPSCs expressing the mesoderm marker Brachyury: more than 99%
hPSCs; three days after treatment
  differentiated cells expressing Mesp1 (cardiac mesoderm): more than 95%
GSK-3 α
  IC50: 0.65 nM
GSK-3, β
  IC50: 0.58 nM
